The test system of test [1] is RKO p53+/+ or p53−/− cells. Nature of the test: Determination of p53 status dependency. It counts as cell-based, human. The conditions noted are these: RKO p53+/+ vs p53−/−, 72 hours, viable cell numbers. As to the method: (§1) The isogenic colon carcinoma cells lines HCT116 p53+/+ or p53−/− and RKO p53+/+ or p53−/− were cultured in 12-well plates. After a recovery period of 24 hours, NVX-412 or Nutlin-3 was added in fresh growth medium at the indicated concentrations. […] After 24 or 72 hours cell numbers were determined with a Beckman Coulter ViCell XR.

Test [2] has as its system HCT116 p53+/+ or p53−/− cells. Kind of test: Determination of p53 status dependency. It counts as cell-based, human. The settings on record: HCT116 p53+/+ vs p53−/−, 72 hours, viable cell numbers. As for the experimental part:
as §1

The subject of another test is p-p53 (Ser15). Nature of the test: Immunofluorescence staining of p-p53 (Ser15) in HCT116 cells. It counts as cell-based, human. The conditions noted are these: HCT116, 24 hours. As to the method:
HCT116 and HeLa cells were seeded on glass cover slips in 6-well plates. 24 hours after plating, HCT116 cells were incubated with 0.15, 0.5 and 1 µM NVX-412 and 1 µM CPT for 24 hours for staining of p-p53. For investigating γH2AX, HeLa cells were incubated with 0.21, 0.5 and 1 µM NVX-412 and 1 µM CPT for 3 or 24 hours. Additionally, cells were allowed to recover for 24 hours in normal growth medium after 24 hours of incubation with NVX-412 or CPT (wash-out experiment). After the respective treatments, cells were washed and fixed with 4% methanol-free formaldehyde (Polysciences Inc. Warrington, PA, USA) for 15 minutes at room temperature and then permeabilized with 0.2% Triton X-100/PBS for 2 minutes at room temperature. After blocking with goat serum (5%) in 1% BSA/0.3% Triton X-100/PBS, the respective primary antibody was added and cells were incubated at 4°C overnight. Antibodies used were: mouse p-p53 (Ser15) (Cell Signaling Technology, Danvers, MA, USA) at 1∶100 dilution and mouse p-H2AX (Ser139) (Millipore, Billerica, MA, USA) at 1∶1000 dilution in 1% BSA/PBS, respectively. Cells were then washed 3 times for 10 minutes with 0.25% BSA/0.1% Triton X-100/PBS and incubated with the Alexa Fluor 488 conjugated secondary anti-mouse antibody (1∶1000 in 0.25% BSA/0.1% Triton X-100/PBS) for 1 hour at room temperature in the dark. Cells were washed 3 times for 10 minutes with 0.05% Tween-20/PBS containing Hoechst 33342 (Sigma Aldrich, Vienna, AUT) and mounted with mounting medium (Fluoprep, bioMérieux, Marcy l'Etoile, FRA). Fluorescence was immediately recorded on a Zeiss LSM700 laser scanning microscope.

Another test has as its system HCT116 cells. Nature of the test: Morphology assay / quantification of cell sizes. The conditions noted are these: HCT116, 48 hours treatment, 0.15 and 1 µM. It counts as cell-based, human. As for the experimental part:
(§2) To investigate potential morphological changes upon treatment with NVX-412, HCT116, HeLa and HT-29 cells were plated in 6-well plates and incubated for up to 72 hours with the indicated concentrations of NVX-412, DMSO as vehicle control and 1 µM Camptothecin (CPT) as a positive control for apoptotic morphology. Control experiments were carried out to ensure that morphological changes are not due to differences in confluency. After 24, 48 and 72 hours pictures were taken with an Olympus IX71 inverted microscope and camera system (Olympus Color View III) at 20× magnification.
(§3) Cell sizes were quantified using specialized imaging software (ImageJ 1.45d, US NIH, Bethesda, MD, USA). Average areas of all cells present within 5 different fields of view per sample were determined after 48 hours treatment with 0, 0.15 and 1 µM NVX-412.

The next test deals with HeLa cells. Nature of the test: Morphology assay / quantification of cell sizes. It counts as cell-based, human. The settings on record: 48 hours treatment. As for the experimental part: as §2, §3
The test system of test [3] is HT-29 cells. Kind of test: Morphology assay / quantification of cell sizes. The format is cell-based, human. The conditions noted are these: HT-29, 48 hours treatment. As to the method: as §2, §3
The test system of test [4] is HT-29 cells. Nature of the test: Proliferation kinetics. The format is cell-based, human. As to the method: HT-29 cells were plated (2×10^4 cells/well) in 24-well plates. After a recovery period of 24 hours, NVX-412 was added in fresh growth medium to final concentrations of 0, 300 and 1000 nM, respectively. After 24, 48 and 72 hours cell numbers were determined with a Z1 Coulter Particle Counter.

The next test deals with Melanoma cell lines. Kind of test: NCI-60 DTP human tumor cell line screen (sulphorhodamine B). The conditions noted are these: 9 cell lines, 48 hours incubation. The format is cell-based. As to the method: (§4) NVX-412 was included in an anti-cancer activity screen by the National Cancer Institute (NCI). The compound was tested against 59 different human tumor cell lines, representing leukemia, melanoma and cancers of the lung, colon, brain, ovary, breast, prostate, and kidney (for a complete list of cell lines please refer to Shoemaker et al. 2006 [5]). The methodology of this in vitro cancer screen is described in detail on the NCI website (http://dtp.nci.nih.gov/branches/btb/ivclsp.html). Briefly, the human tumor cell lines of the cancer screening panel were grown in RPMI 1640 medium containing 5% FCS and 2 mM L-glutamine in 96-well plates at densities ranging from 5,000 to 40,000 cells/well. After 24 hours the experimental drug was added at 5 concentrations plus control and cells were incubated for additional 48 hours. For determination of the growth-inhibitory effect of the compound a sulphorhodamine B assay was performed that employs a chemical fixation step at the end of drug treatment and a subsequent staining for 10 minutes. After a washing step, absorbance was determined at 515 nm. Three different dose response parameters are then calculated: growth inhibition of 50% (GI50), which is the drug concentration resulting in a 50% reduction in the net protein increase, the drug concentration resulting in total growth inhibition (TGI) and the LC50, indicating a net loss of cells following treatment.

Test [5] concerns Central Nervous System Cancer cell lines. Described as above. The format is cell-based. The conditions noted are these: 5 cell lines, 48 hours incubation. As for the experimental part:
as §4

The test system of the next test is Renal Cancer cell lines. The description is as above. The format is cell-based. The conditions noted are these: 8 cell lines, 48 hours incubation. As to the method: as §4
A further test deals with Colon Cancer cell lines. Described as above. The format is cell-based. The conditions noted are these: 7 cell lines, 48 hours incubation. As to the method: as §4
The test system of the next test is Breast Cancer cell lines. The description is as above. The settings on record: 5 cell lines, 48 hours incubation. The format is cell-based. As to the method: as §4
Test [6] has as its system Prostate Cancer cell lines. The test is described as above. The conditions noted are these: 2 cell lines, 48 hours incubation. The format is cell-based. As for the experimental part:
as §4

The next test concerns Leukemia cell lines. Described as above. The conditions noted are these: 6 cell lines, 48 hours incubation. The format is cell-based. As to the method:
as §4

The subject of test [7] is Ovarian Cancer cell lines. The test is described as above. The format is cell-based. The settings on record: 6 cell lines, 48 hours incubation. As to the method:
as §4

For test [8], the system named is Non-Small Cell Lung Cancer cell lines. The test is described as above. The format is cell-based. The settings on record: 9 cell lines, 48 hours incubation. As to the method: as §4

The term IC50 denotes the concentration that gives 50% inhibition. A higher IC50 goes with lower potency.

As to `O=C(NNc1nc2cc(F)ccc2n2cccc12)c1cnccn1` [NVX-412, Pyrazine-2-carboxylic acid N’- (7-fluoro-pyrrolo[1,2-α]quinoxalin-4-yl)-hydrazide-oxalic acid co-crystal], the “p53 status dependency of sensitivity” value in [1] and in test [2] was “the p53 status does not influence the sensitivity to NVX-412” throughout. In addition, the “p-p53 (Ser15) immunofluorescence staining” value in the test with p-p53 (Ser15) (0.5 and 1 µM) is listed as “positive staining”; in the test on p-p53 (Ser15) (IC50 concentration), “did not lead to p-p53 (Ser15) staining”. In addition, the Cell sizes result in the test with HCT116 cells, with HeLa cells and with HT-29 cells [3] was “highly significant increase in cell sizes” each time. For the same molecule, the Proliferation of cells result in the test on HT-29 cells [4] (HT-29, 300 nM (IC50), after 2 days, compared to untreated control) is on record as “significantly decreased”. In addition, the Cell numbers entry with HT-29 cells [4] (HT-29, 1 µM, 3 days of treatment) was “cell numbers started to decline below the numbers of cells seeded”. For the same molecule, the IC50 stood at 0.214 µM in the test on Melanoma cell lines; 0.167 µM in test [5]; 0.182 µM in the test on Renal Cancer cell lines; 0.169 µM with Colon Cancer cell lines; 0.266 µM in the test with Breast Cancer cell lines; 0.276 µM in [6]. In addition, the IC50 was 0.062 µM in the test on Leukemia cell lines, 0.377 µM in test [7] and 0.174 µM in [8].

Values taken from PMC3441706 (PLoS ONE, 2012).
